{
  "source": "paper PMC8467575",
  "about": "“Bacterial-Specific Aggregation and Killing of Immunomodulatory Host Defense Peptides” (Pharmaceuticals, 2021)",
  "key": {"[1]": {"tested_on": "Salmonella enterica ATCC 13076", "experiment": "microbe, parasite or virus in culture", "assay_type": "cell-based", "details": "for MIC: read-out: MIC S. enterica", "protocol": "(§1) E. coli, S. aureus, and S. enterica were cultured in nutrient broth at 37 °C. Listeria was cultured in brain heart infusion broth at 37 °C. Bacteria at early log phase (OD600 ≈ 0.1) were incubated with the peptides at different concentrations (100–3.12 µM) for 4–6 h. After the incubation period, the bacterial culture medium was diluted at different ratios (1 in 2000–2,000,000) in sterile PBS and was spread on blood agar (BA) plates. BA plates were incubated at 37 °C for 24 h, and the number of colonies formed was counted to determine cell viability."}, "[2]": {"tested_on": "Staphylococcus aureus ATCC 25923", "experiment": "microbe, parasite or virus in culture", "assay_type": "cell-based", "protocol": "as §1"}, "[3]": {"tested_on": "Escherichia coli ATCC 25922", "experiment": "microbe, parasite or virus in culture", "assay_type": "cell-based", "protocol": "as §1"}, "[4]": {"tested_on": "E. coli (ATCC 25922GFP) in Caco-2 cells", "experiment": "Bacterial infection of Caco-2 cells", "assay_type": "cell-based, Escherichia coli", "details": "400,000 CFU/mL GFP-expressing E. coli, 5 µM peptide, 5 h, fluorescence microscopy", "protocol": "Caco-2 cells grown in six-well plates were also infected with E. coli (ATCC 25922GFP) at a CFU of 400,000 cells/mL. Cells were then incubated with 5 µM of TAMRA-labeled peptides for 5 h and were observed under fluorescence microscope for the presence of fluorescent bacteria."}, "[5]": {"tested_on": "DF-1 chicken embryonic fibroblasts", "experiment": "Cytotoxicity assay (MTS)", "assay_type": "cell-based", "details": "100 µM peptide, 24 h, triplicate", "protocol": "(§2) DF-1 chicken embryonic fibroblasts were cultured in DMEM containing 8% FBS and 2% CS. Caco-2 cells were cultured in EMEM containing 20% FBS. Cells in growth phase (~70% confluency) were incubated with a 100 µM concentration of each peptide for 24 h. Cell viability was determined in triplicate by MTS assay using the CellTiter 96® AQueous Cell Proliferation Assay, as per the manufacturer’s protocol."}, "Caco-2 cells": {"tested_on": "Caco-2 cells", "experiment": "Cytotoxicity assay (MTS)", "assay_type": "cell-based, human", "details": "100 µM peptide, 24 h, triplicate", "protocol": "as §2"}, "[6]": {"tested_on": "Caco-2 human colorectal adenocarcinoma cells", "experiment": "Cellular uptake of TAMRA-labeled peptides (flow cytometry, fluorescence microscopy)", "assay_type": "cell-based", "details": "5 h", "protocol": "Caco-2 human colorectal adenocarcinoma cells were cultured to growth phase (~70% confluency) in EMEM containing 20% FBS and were treated with 5 µM of TAMRA-labeled peptides for 5 h. The uptake of fluorescently labeled peptide in Caco-2 human colorectal adenocarcinoma cells was measured by flow cytometry using BD FACS Calibur (BD Biosciences (Franklin Lakes, NJ, USA)) and by fluorescence microscopy."}, "E. coli": {"tested_on": "E. coli", "experiment": "Bacterial uptake of TAMRA-labeled peptides", "assay_type": "cell-based, Escherichia coli", "details": "5 µM, up to 5 h, log phase culture, fluorescence of free peptide in supernatant, triplicate", "protocol": "(§3) TAMRA-conjugated peptides were used for cellular uptake studies. Liquid cultures of E. coli and Bacillus subtilis at log phase (OD600 ≈ 0.3–0.4) were incubated with TAMRA-labeled peptides (5 µM), and the percentage uptake of peptides was determined in triplicate for 5 h by measuring the fluorescence of free peptide in the supernatant of bacteria at […] wavelengths of 579 and 546 nm. (1) % Uptake=100−Fluorescence of supernatant/Initial fluorescence of sample×100%"}, "Bacillus subtilis": {"tested_on": "Bacillus subtilis", "experiment": "Bacterial uptake of TAMRA-labeled peptides", "assay_type": "cell-based", "details": "5 µM, up to 5 h, log phase culture, fluorescence of free peptide in supernatant, triplicate", "protocol": "as §3"}, "[7]": {"tested_on": "chicken red blood cell suspension", "experiment": "Hemolysis assay", "assay_type": "cell-based", "details": "eukaryotic cells (cytotoxicity and hemolysis at 100 µM) versus antibacterial IC50", "protocol": "A chicken red blood cell suspension was purchased from Cedarlane (Burlington, CA). RBCs were incubated with a 100 µM concentration of each peptide at 37 °C for 4 h. Triton-X was used as a positive control to achieve total hemolysis of RBCs. Percentage hemolysis was determined in triplicate by centrifuging down the RBC suspension and by measuring the absorbance of the supernatant at 540 nm. (2) % Hemolysis=Absorbance of sample @540nm /Absorbance of positive control @540nm×100%."}, "[8]": {"tested_on": "Listeria monocytogenes ATCC 19115", "assay_type": "cell-based", "protocol": "as §1"}},
  "note": "Where two headings read alike, the source gives them in different places. Where a SMILES comes first, the peptide text is derived from it. Bridges are numbered along the chain shown (N, C = ends).",
  "data": [
    {"compound": "CC1(C)S[C@@H]2[C@H](NC(=O)[C@H](N)c3ccccc3)C(=O)N2[C@H]1C(=O)O", "note": "[Ampicillin, reference compound]", "values": [
      {"measurement": "IC50", "setting": "[1]; Salmonella enterica, ATCC13076, early log phase (OD600 ≈ 0.1), nutrient broth 37 °C, peptide 100–3.12 µM for 4–6 h, colony count on blood agar after 24 h, read-out: IC50 S. enterica", "value": 7, "unit": "µM"},
      {"measurement": "MIC", "setting": "[1]; Salmonella enterica, ATCC13076, early log phase, nutrient broth 37 °C, 4–6 h, colony count on blood agar", "value": 13.5, "unit": "µM"},
      {"measurement": "IC50", "setting": "[2]; Staphylococcus aureus, ATCC25923, early log phase (OD600 ≈ 0.1), nutrient broth 37 °C, peptide 100–3.12 µM for 4–6 h, colony count on blood agar after 24 h, read-out: IC50 S. aureus", "value": 3.6, "unit": "µM"},
      {"measurement": "IC50", "setting": "[3]; Escherichia coli, ATCC25922, early log phase (OD600 ≈ 0.1), nutrient broth 37 °C, peptide 100–3.12 µM for 4–6 h, colony count on blood agar after 24 h, read-out: IC50 E. coli", "value": 15.2, "unit": "µM"}
    ]},
    {"compound": "N=C(N)NCCC[C@@H]1NC(=O)[C@H](CCCNC(=N)N)NC(=O)[C@H](CCCNC(=N)N)NC(=O)[C@@H](N)CSSC[C@@H](C(N)=O)NC(=O)[C@H](Cc2c[nH]cn2)NC(=O)[C@@H]2CCCN2C(=O)[C@H](CO)NC(=O)CNC1=O", "note": "[mCA4-4] (H-CRRRGSPHC-NH2; disulfide 1-9)", "values": [
      {"measurement": "reduction of bacterial infection of Caco-2 cells", "setting": "[4]", "value": "unable to reduce the bacterial burden"},
      {"measurement": "viability of DF-1 fibroblasts", "setting": "[5]", "value": "did not compromise the viability"},
      {"measurement": "viability of Caco-2 intestinal epithelial cells", "setting": "Caco-2 cells", "value": "did not compromise the viability"},
      {"measurement": "% fluorescent cells (cellular uptake)", "setting": "[6]; Caco-2, 5 µM TAMRA-labeled peptide, flow cytometry", "value": 19, "unit": "%"},
      {"measurement": "uptake of fluorescent peptide seen by fluorescence microscopy", "setting": "[6]; Caco-2, TAMRA-labeled peptide", "value": "weak fluorescence"},
      {"measurement": "uptake of TAMRA-labeled peptide in E. coli", "setting": "E. coli", "value": "taken up well"},
      {"measurement": "uptake of TAMRA-labeled peptide in B. subtilis", "setting": "Bacillus subtilis", "value": "taken up well"}
    ]},
    {"compound": "CC[C@H](C)[C@@H]1NC(=O)[C@H](CCCNC(=N)N)NC(=O)[C@H](Cc2ccccc2)NC(=O)[C@H](CCCCN)NC(=O)[C@H](Cc2ccccc2)NC(=O)[C@H](CCCNC(=N)N)NC(=O)[C@@H](N)CSSC[C@@H](C(N)=O)NC(=O)[C@H]([C@@H](C)CC)NC(=O)[C@H](C(C)C)NC1=O", "note": "[mCA4-5] (H-CRFKFRIVIC-NH2; disulfide 1-10)", "values": [
      {"measurement": "reduction of bacterial infection of Caco-2 cells", "setting": "[4]", "value": "actively contained and reduced bacterial infections"},
      {"measurement": "nontoxic and hemocompatible concentration as fold of the IC50 of the peptide", "setting": "[7]", "value": "> 6", "unit": "fold"},
      {"measurement": "IC50", "setting": "[8]", "value": 5.2, "unit": "µM"},
      {"measurement": "MIC L. monocytogenes", "setting": "[8]", "value": 10, "unit": "µM"},
      {"measurement": "IC50", "setting": "[1]; ATCC 13076", "value": 10.2, "unit": "µM"},
      {"measurement": "MIC", "setting": "[1]; ATCC 13076", "value": 30, "unit": "µM"},
      {"measurement": "IC50", "setting": "[2]; ATCC 25923", "value": 4, "unit": "µM"},
      {"measurement": "MIC S. aureus", "setting": "[2]; ATCC 25923", "value": 15, "unit": "µM"},
      {"measurement": "IC50", "setting": "[3]; ATCC 25922", "value": 15.1, "unit": "µM"},
      {"measurement": "MIC E. coli", "setting": "[3]; ATCC 25922", "value": 40, "unit": "µM"}
    ]}
  ]
}
